Assay results from a melting point compilation (Tetko et al.; mined from patent text by program, amines drawn as free bases though some values may be those of a salt).

melting point [°C] | Structure (SMILES)
226 to 228 | C[C@H]1CCCN(C(=O)[C@H]2Cc3cc(N4CCCCC4)ccc3N2c2cccnn2)C1
156 | Cc1ccc(C(=O)c2ccc3nc(Cl)nc(-c4cccc(Cl)c4)c3c2)cc1
62 to 63 | Cc1c(C)c2c(c(C)c1N)CC(C)(CCc1ccc(F)cc1)O2 (centres undefined)
174 to 175 | COc1cc(C=NNC(=O)c2ccc(O)c(N)c2)cc(OC)c1OCc1ccc(C(C)C)cc1
160 to 162 | Nc1cc(C(=O)Nc2ccccc2)ccc1OC(F)(F)F
227 to 230 | c1cnc2ccc(Cn3nnc4ccc(-n5ccnc5)nc43)cc2c1
74 | Cc1cccc(C2SCCCS2)n1
102 | CCOC(=O)C1(Cl)Oc2c(cc(C(=O)c3ccccc3F)c(OC)c2C)C1Cl (centres undefined)
270 | NC(=O)c1cc([N+](=O)[O-])ccc1C=Cc1ccccc1
215 to 216 | CC(C)(C)OC(=O)N1CC2C(CCC3(C)C(C(=O)O)CCC23)C2(C)CCC(=O)C=C12 (centres undefined)
215 | O=C1NCN=C(c2ccccc2)c2ccccc21
122 to 123 | c1ccc(C2C3=NCCN3CCc3ccccc32)cc1 (centres undefined)
132 to 134 | C#Cc1ccc2c(c1)[C@@H](N)[C@H](O)CO2 (relative stereo)
151 to 153 | CC(=O)OC1C(Oc2cc(C)cc(O)c2C(=O)CCc2ccc3occc3c2)OC(CO)C(O)C1OC(C)=O (centres undefined)
161 to 162 | COc1cc2c(cc1OCc1ccccc1)CCN(Cc1ccc(C#N)cc1)C2
178 | CSc1c(C#N)c(=O)n2ccccc2c1C(C)=O
99 to 101 | CSC(SC)=C(C#N)S(=O)(=O)c1ccccc1
214 | COc1cc(C(=O)c2nc(N)c3ccccn23)ccc1[N+](=O)[O-]
72 to 74 | Cc1c(C)c2c(c(C)c1OCCc1ccccc1)C(c1ccc(C(C)C)cc1)C(C)(C)O2 (centres undefined)
282 | CCCC(=O)Nc1cccc2c1C(=O)c1c-2n[nH]c1-c1ccc(OC)cc1
124 to 126 | N#Cc1cnn(-c2ccc(Cl)c(Cl)c2Cl)c1Cl
101 to 103 | O=[N+]([O-])c1ccc(CS(=O)(=O)NCCc2ccccc2)cc1
170 to 172 | COc1ccc(-c2cnc3cc(OC)c(OC)cc3c2)cn1

melting point [°C] | Structure (SMILES)
> 320 | CC(=O)c1c[nH]c2cn[nH]c2c1=O
85 to 87 | COc1ccc(C[C@@H](COC(C)=O)NC(=O)c2ccnc(-n3nc(-c4cccnc4)c4ccccc4c3=O)c2)cc1OC
92 to 105 | COc1cc2c(cc1Nc1ncc(Cl)c(Nc3ccc(C#N)cc3OC)n1)CCN(CC(=O)N(C)C)CC2
213 to 214 | CC(/C=C/c1c(C)oc(C)c1C)=C\C=C\C(C)=C\C(=O)O
223 to 226 | O=c1c2cccc3c2n(c(=O)n1CC(O)CO)-c1cc(C(F)(F)F)ccc1S3(=O)=O (centres undefined)
280 to 285 | O=c1c2c[nH]cc(-c3ccccc3)c-2nn1-c1ccccc1
165 | COc1ccc2c(c1)C=C(C(=O)NCCCCN1CCN(c3ccccc3OC)CC1)CO2
144 to 146 | COC(=O)C1C(C)OC(=O)C(C)C1NC(=O)OCc1ccccc1 (centres undefined)
164 to 166 | CCOC(=O)c1cnn(-c2cc(Cl)cc(Cl)c2)c1C(N)=O
235 to 240 | CCNC(=O)N1CCn2nc(-c3ccc(F)cc3)c(-c3ccncc3)c2N1
168 to 172 | OC[C@H](O)[C@H](O)COc1nc(N2CCNCC2)nc2ccccc12 (racemic)
148 to 150 | CC[C@H]1CN(c2c(F)cc3c(=O)c(C(=O)O)cn(C4CC4)c3c2C)C[C@H]1N
137 | N#Cc1c(Cl)cccc1SSc1ccc([N+](=O)[O-])cc1C(Cl)(Cl)Cl
100 | CCCCCCCCCCCC(=O)N1CCc2nc3ccccc3c(C)c2CC1
134 to 135 | Cc1nnc(-c2ccc3occ(-c4cnn(Cc5ccccn5)c4)c3c2)o1
177 to 178 | CCOC(=O)c1[nH]c(CC)nc1C(C)C
100 to 101 | COc1ccc(CCc2oc3ccc(Br)cc3c2C(C)=O)cc1
137 to 139 | Cc1ccc2c(c1)C(O)CC21CCN(CCCC(=O)c2ccc(F)cc2)C1 (centres undefined)
40 to 45 | COC(=O)CC=C(CC(C)C)C(=O)O
100 | Cc1cc(-n2ccnc2)c2cccc(OCc3c(Cl)ccc(S(=O)(=O)N4CCC[C@H]4C(=O)NCC4CCN(CC(=O)OC(C)(C)C)CC4)c3Cl)c2n1
155 to 157 | CN1CCN(c2ccccc2C=C2SCCN(c3ccc(Cl)c(Cl)c3)C2=O)CC1
81 to 82 | CCCCCc1ccc(-c2ccc(C(C)=O)cc2)cc1
43.5 to 45.2 | O=C(Oc1cccc(F)c1)c1ccc(F)cc1

melting point [°C] | Structure (SMILES)
> 270 | Cc1ccc(C(=O)Nc2ccc(C)c(-c3nc(S(C)(=O)=O)nc4c3CNC(=O)N4c3c(F)cccc3F)c2)cc1F
212 to 213 | O=C(O)CS(=O)(=O)c1ccc2c(-c3ccc(Cl)cc3)noc2c1Cl
61 to 63 | CCCOc1nc2sccc2c(=N)n1CCC
215 to 217 | O=c1[nH]c(-c2ccccn2)c(I)c(=O)n1-c1ccc(OC(F)(F)F)cc1
147 to 149 | CC(=O)Nc1ccccc1CS(=O)c1nccn1-c1ccncc1 (centres undefined)
232 to 233 | CS(=O)(=O)c1ccc(-c2oc3ccccc3c(=O)c2-c2cnccc2Cl)cc1
189 to 192 | CC(=O)NCC1CC1c1c(C#N)ccc2nn(C)cc12 (centres undefined)
98.5 to 99.5 | CCCCc1cccnc1NC=C(C#N)C(=O)OCC
177 to 178 | O=C(NCCO)c1cccc(-c2cccc3nn(Cc4ccc(F)c(Cl)c4)cc23)c1
55 to 59 | O=[N+]([O-])c1cccc2c1OCCO2
125 to 126 | CCOC(=O)c1cc2cc([N+](=O)[O-])cc(C)c2o1
221 to 222 | N#Cc1cc(C(F)(F)F)nn1-c1ccc(NC(=O)c2ccncc2Cl)cc1
94 to 97 | O=C(CO)NCCCCCCCCCCCCNC(=O)CO
116 to 119 | Nc1noc2cc3c(cc12)C1(CO3)C(=O)N(CC2CCCO2)c2ccccc21 (centres undefined)
184 to 185 | C[C@@H]1C(=O)N(C(=O)N2CCOCC2)Cc2ccccc2[C@@H]1C (relative stereo)
80 to 82 | COc1ccc(O)cn1
118 to 119 | c1ccc2c(c1)-c1ccccc1C2CN1CCCCC1
174 to 176 | CCC(CC)Nc1nc2c(c(-c3c(C)cc(C)cc3C)cn2C)c(=O)n1C
156 to 158 | Cc1ccnc(C(O)c2ccc(N)cc2)c1 (centres undefined)
100 to 102 | CCCc1c(OCCCCOc2cccc(Sc3ccc(C(=O)O)cc3)c2)ccc(C(C)=O)c1O
180 to 182 | COc1ccc(SC(C(=O)O)c2ccccc2)c(Cl)c1Cl (centres undefined)
159 to 161 | CC(=O)c1cc(C(C)(C)C)cc(C(=O)O)c1O
92 | CCc1ccc(C2CCCN2S(=O)(=O)c2ccc(C)cc2)cc1 (racemic)

melting point [°C] | Structure (SMILES)
166 to 167 | CCOC(=O)N(CC(=O)O)C(=O)c1c(OCC(F)(F)F)ccc2c(C(F)(F)F)c(OC)ccc12
188 | c1cc2nc3c(n2nc1N1CCOCC1)CCCC3
238 to 239 | COc1ccc(C(=O)O)cc1C12CC3CC(CC(C3)C1)C2
194 to 195 | CCOC(=O)/C=C/c1cn(-c2ccccc2)nc1OCc1ccc(OCc2nc(-c3ccccc3)oc2C)c(OC)c1
83 to 92 | COC1=CC2=CCC3C4CC=CC4(C)CCC3C2(C)CC1 (centres undefined)
50 to 51 | CCOC(=O)C(Cc1cc(OC)c(OC)cc1OC)C(=O)OCC
95 to 99 | NC(=O)N(O)CCn1cc(Sc2ccccc2)c2ccccc21
58 to 60 | CSc1ncc(CN)c(NC2CCCC2)n1
132 to 146 | CC(C)(C)OC(=O)N[C@H](CCOc1ccc(C#N)cc1)C(=O)O
122 to 123 | CN1Cc2c(c3ccccc3c3ccccc23)C1
50 to 51 | CCCCCCCCCCCCCCCCSCC(CNS(=O)(=O)CCCI)n1nnc(C)n1 (centres undefined)
224 to 228 | CNc1nc(NC(=O)NS(=O)(=O)c2ccccc2Cl)nc(OC)n1
153 | O=C(NCC12CC3CC(CC(Cl)(C3)C1)C2)c1ccccc1Cl
88 to 110 | Nc1cccc(-c2ccc(OCC3CNC3)c3ccccc23)n1
87 | Cc1ccc(S(=O)(=O)N2[C@H](CCCC(=O)O)CC[C@@H]2c2ccc(F)cc2)cc1 (racemic)
222 to 226 | CN1CCOC1=C(C#N)C=C1Nc2ccccc2C1=O
> 260 | O=C(Nc1ccc2[nH]c(=O)[nH]c2c1)C(=O)N1CCC(Cc2ccc(F)cc2)CC1
155 | CCOC(=O)C1=C2NCCN2C(C)=C(C(C)=O)C1c1cccc([N+](=O)[O-])c1 (centres undefined)
129 to 130 | Cc1oc(-c2ccccc2)nc1CCOc1ccc(OC(C)(C)C(=O)O)cc1
177 to 179 | CCc1cc(NCc2ccc(-c3ccccc3-c3nnn[nH]3)cc2)n2nccc2n1
250 to 251 | N#Cc1cccc(C(=O)Nc2cccc(-c3cccc4c3/C(=C/c3ccc[nH]3)C(=O)N4)c2)c1
223 to 225 | O=C(O)c1cn(CCF)c2nc(N3CCNCC3)c(F)cc2c1=O

Structure (SMILES) | melting point [°C]
CN1C(=O)[C@H](NC(=O)C2CCC3(CC2)CCN(C(=O)OC(C)(C)C)CC3)N=C(c2ccccc2)c2ccccc21 | 135 to 138
CCCC1CC2=CC(=O)CCC2C2CCC3(C)C(OC(C)=O)CCC3C12 (centres undefined) | 97 to 100
N#Cc1nn(-c2c(Cl)cc(C(F)(F)F)cc2Cl)c(N)c1SC(F)(F)F | 163
CCCCCCCCCC(=O)c1cn(CCCC(=O)O)c2ccccc12 | 89 to 90
CCCN1CCC23c4cccc(O)c4OC2C2CCC3(C1)C(COC)C2 (centres undefined) | 130 to 131
Cc1cc(C)cc(NC(=O)NC2N=C(c3ccccc3)c3ccccc3N(C)C2=O)c1 (centres undefined) | 267 to 269
CCCCn1cc(C(=O)C(=O)O)c2cc(-c3ccc(Cl)cc3)ccc21 | 136 to 137
COc1cc(C2C3=C(COC3=O)N(Cc3ccc([N+](=O)[O-])cc3)c3cc4c(cc32)OCO4)cc(OC)c1OC (centres undefined) | 240
